For series [1], the system named is lung adenocarcinoma (A549) cells. The series is described as follows: MTT proliferation assay, A549 cells. Type of series: cell-based, human. The method, then:
(§1) Human carcinoma cell lines A549 (lung carcinoma), HeLa (cervical carcinoma), SW620 (colorectal adenocarcinoma, metastatic) and CFPAC-1 (pancreatic cancer, derived from metastatic: liver), and normal human foreskin (HFF-1) fibroblasts were obtained from the American Type Culture Collection (ATCC, Manassas, VA, USA). Cells were cultured in humidified atmosphere at 37 °C with 5% CO2. As growth medium, Dulbecco′s modified Eagle medium (DMEM) was used with the addition of fetal bovine serum (10%), L-glutamine (2 mM) and antibiotics: streptomycin ([…]) and penicillin (100 U/mL).
(§2) Cells were seeded onto 96-well microtiter plates at a seeding density of 3000 cells/well for carcinoma cell lines, and 5000 cells/well for normal human fibroblasts. The next day, cells were treated with test agents in five different concentrations (0.01–100 µM) and further incubated for 72 h. […] Following 72 h incubation, the MTT assay was performed and measured absorbances were transformed into percentage of cell growth as described previously. Results were obtained from three independent experiments. IC50 values were calculated using linear regression analysis and results were statistically analyzed by ANOVA, Tukey post-hoc test (p < 0.05).

The test system of series [2] is metastatic colorectal adenocarcinoma (SW620) cells. Put plainly: MTT proliferation assay, SW620 cells. Type of series: cell-based, human. How it is done:
as §1, §2

Series [3] relates to cervical carcinoma (HeLa) cells. The series is described as follows: MTT proliferation assay, HeLa cells. Type of series: cell-based, human. Particulars: 72 h incubation. How it is done: as §1, §2
In series [4] the test system is ductal pancreatic adenocarcinoma (CFPAC-1) cells. The series is described as follows: MTT proliferation assay, CFPAC-1 cells. The series is classed as cell-based, human. The method, then: as §1, §2
Where [5] appears, read: Homo sapiens, A549, 72 h incubation.
Where [6] appears, read: Homo sapiens, SW-620, 72 h incubation.
The mark [7] stands for this setting: Homo sapiens, CFPAC-1, 72 h incubation.

In publication PMC8199500, “Novel Bis- and Mono-Pyrrolo[2,3-d]pyrimidine and Purine Derivatives: Synthesis, Computational Analysis and Antiproliferative Evaluation” (Molecules, 2021) one finds IC50 and melting point data, which are given here for 19 compounds.

As to “{1-[2-(4-(Pyrrolidin-1-yl)-7H-pyrrolo[2,3-d]pyrimidin-7-yl)ethyl]-1H-1,2,3-triazol-4-yl}methyl ether [7d]”, the IC50 in series [1] (72 h incubation), in series [2] (72 h incubation), in series [3] and in series [4] (72 h incubation) was > 100 µM each time.
Consider `c1nc(N2CCCCC2)c2ccn(CCn3cc(COc4ccc(OCc5cn(CCn6ccc7c(N8CCCCC8)ncnc76)nn5)cc4)nn3)c2n1` [6a, 1,4-Bis{[1-(2-(4-(piperidin-1-yl)-7H-pyrrolo[2,3-d]pyrimidin-7-yl)ethyl)-1H-1,2,3-triazol-4-yl]methoxy}benzene], for which the melting point is 185 to 187 °C. In addition, the IC50 in series [1] (setting [5]) is > 100 µM. In addition, in series [2] (setting [6]), the IC50 was > 100 µM. For the same compound, the IC50 in series [3] (Homo sapiens, HeLa) is > 100 µM. The IC50 in series [4] (setting [7]) is > 100 µM.
As to `Clc1ncnc2c1ccn2CCn1cc(CCCc2cn(CCn3ccc4c(Cl)ncnc43)nn2)nn1` [5c, 1,3-Bis{1-[2-(4-chloro-7H-pyrrolo[2,3-d]pyrimidin-7-yl)ethyl]-1H-1,2,3-triazol-4-yl}propane], the IC50 is 99.6 ± 1.5 µM in series [1] (setting [5]); > 100 µM in series [2] (setting [6]); 99.7 ± 5.9 µM in series [3] (Homo sapiens, HeLa); 74.9 ± 3.8 µM in series [4] (setting [7]).
On to `C#CCCCc1cn(CCn2ccc3c(Cl)ncnc32)nn1` [5g, 4-chloro-7-{2-[4-(pent-4-yn-1-yl)-1H-1,2,3-triazol-1-yl]ethyl}-7H-pyrrolo[2,3-d]pyrimidine], for which the IC50 was > 100 µM in series [1] (setting [5]); 80.5 ± 14.9 µM in series [2] (setting [6]); 75 ± 3.5 µM in series [3] (Homo sapiens, HeLa); 19.5 ± 4 µM in series [4] (setting [7]).
With “6-(piperidin-1-yl)-9-{2-[4-(((4′-(prop-2-yn-1-yloxy)-[1,1′-biphenyl]-4-yl)oxy)methyl)-1H-1,2,3-triazol-1-yl]ethyl}-9H-purine [10f]”, the IC50 is 62.1 ± 2.3 µM in series [1] (72 h incubation), 98 ± 1.3 µM in series [2] (72 h incubation), 8.1 ± 2.2 µM in series [3] and 6.5 ± 0.78 µM in series [4] (72 h incubation).
Take `C#CCOc1ccc(OCc2cn(CCn3cnc4c(N)ncnc43)nn2)cc1` [11e, 6-amino-9-{2-[4-((4-(prop-2-yn-1-yloxy)phenoxy)methyl)-1H-1,2,3-triazol-1-yl]ethyl}-9H-purine]: the melting point was > 280 °C. Moreover, the IC50 in series [1] (setting [5]) was > 100 µM. Further, in series [2] (setting [6]), the IC50 is > 100 µM. Further, the IC50 in series [3] (Homo sapiens, HeLa) was > 100 µM. For the same compound, in series [4] (setting [7]), the IC50 was > 100 µM.
For `c1nc(N2CCCC2)c2ccn(CCn3cc(COc4ccc(-c5ccc(OCc6cn(CCn7ccc8c(N9CCCC9)ncnc87)nn6)cc5)cc4)nn3)c2n1` [7b, 4,4′-Bis{[1-(2-(4-(pyrrolidin-1-yl)-7H-pyrrolo[2,3-d]pyrimidin-7-yl)ethyl)-1H-1,2,3-triazol-4-yl]methoxy}-1,1′-biphenyl], the melting point is 187 to 189 °C. In series [1] (setting [5]), this compound showed an IC50 of 69 ± 1.2 µM. Besides, in series [2] (setting [6]), the IC50 is > 100 µM. Half-maximal inhibition in series [3] (Homo sapiens, HeLa) (IC50) was put at 54.6 ± 5.2 µM. In series [4] (setting [7]), this compound showed an IC50 of 77.4 ± 3.5 µM.
`C#CCCCc1cn(CCn2cnc3c(N)ncnc32)nn1` [11g, 6-Amino-9-{2-[4-(pent-4-yn-1-yl)-1H-1,2,3-triazol-1-yl]ethyl}-9H-purine]: the melting point lay within 226 to 228 °C. Besides, the IC50 in series [1] (setting [5]) was > 100 µM. The IC50 in series [2] (setting [6]) is > 100 µM. For the same compound, in series [3] (Homo sapiens, HeLa), the IC50 was > 100 µM. In addition, the IC50 in series [4] (setting [7]) is > 100 µM.
`c1nc(N2CCCCC2)c2ncn(CCn3cc(CCCc4cn(CCn5cnc6c(N7CCCCC7)ncnc65)nn4)nn3)c2n1` [9c, 1,3-Bis{1-[2-(6-(piperidin-1-yl)-9H-purin-9-yl)ethyl]-1H-1,2,3-triazol-4-yl}propane]: the IC50 in series [1] (setting [5]) was > 100 µM; in series [2] (setting [6]), > 100 µM; in series [3] (Homo sapiens, HeLa), 41.2 ± 0.99 µM; in series [4] (setting [7]) it was 53.9 ± 3.4 µM.
Take “{1-[2-(6-(Piperidin-1-yl)-9H-purin-9-yl)ethyl]-1H-1,2,3-triazol-4-yl}methyl ether [9d]”: the 50% inhibitory concentration (IC50) in series [1] (72 h incubation) came out at 73.1 ± 7.7 µM; in series [2] (72 h incubation), 66.1 ± 3 µM; in series [3] it was 34.7 ± 12.1 µM; in series [4] (72 h incubation), 56.8 ± 2.9 µM.
In the case of `c1nc(N2CCCCC2)c2ccn(CCn3cc(COc4ccc(-c5ccc(OCc6cn(CCn7ccc8c(N9CCCCC9)ncnc87)nn6)cc5)cc4)nn3)c2n1` [6b, 4,4′-Bis{[1-(2-(4-(piperidin-1-yl)-7H-pyrrolo[2,3-d]pyrimidin-7-yl)ethyl)-1H-1,2,3-triazol-4-yl]methoxy}-1,1′-biphenyl], the melting point is 137 to 139 °C. For the same compound, in series [1] (setting [5]), it took 53.9 ± 2.1 µM to reach half-maximal inhibition (IC50). The compound further returned an IC50 in series [2] (setting [6]) of 24.7 ± 8.7 µM. Besides, the IC50 in series [3] (Homo sapiens, HeLa) was determined as 68.5 ± 3.2 µM. Besides, inhibition in series [4] (setting [7]) was half-maximal at 17.4 ± 6.3 µM (IC50).
Take `Clc1ncnc2c1ccn2CCn1cc(COc2ccc(OCc3cn(CCn4ccc5c(Cl)ncnc54)nn3)cc2)nn1` [5a, 1,4-Bis{[1-(2-(4-chloro-7H-pyrrolo[2,3-d]pyrimidin-7-yl)ethyl)-1H-1,2,3-triazol-4-yl]methoxy}benzene]: the IC50 in series [1] (setting [5]) was > 100 µM; in series [2] (setting [6]), > 100 µM; in series [3] (Homo sapiens, HeLa) it was 77 ± 2.6 µM; in series [4] (setting [7]), > 100 µM.
For `C#CCOCc1cn(CCn2cnc3c(N)ncnc32)nn1` [11h, 6-amino-9-{2-[4-((prop-2-yn-1-yloxy)methyl)-1H-1,2,3-triazol-1-yl]ethyl}-9H-purine], the melting point fell in the range of 191 to 193 °C. Besides, the IC50 in series [1] (setting [5]) was > 100 µM. Besides, the IC50 in series [2] (setting [6]) was > 100 µM. In addition, the IC50 in series [3] (Homo sapiens, HeLa) is > 100 µM. In addition, the IC50 in series [4] (setting [7]) was > 100 µM.
For “{1-[2-(6-(Piperidin-1-yl)-9H-purin-9-yl)ethyl]-1H-1,2,3-triazol-4-yl}methyl ether [10d]”, the IC50 in series [1] (72 h incubation) is 87.3 ± 4.4 µM; in series [2] (72 h incubation), 63.4 ± 3.6 µM; in series [3], 66.9 ± 11.2 µM; in series [4] (72 h incubation) it was 52.5 ± 4.6 µM.
Regarding `C#CCCCc1cn(CCn2cnc3c(N4CCCCC4)ncnc32)nn1` [9g, 9-{2-[4-(pent-4-yn-1-yl)-1H-1,2,3-triazol-1-yl]ethyl}-6-(piperidin-1-yl)-9H-purine], the IC50 was > 100 µM in series [1] (setting [5]); > 100 µM in series [2] (setting [6]); 72.2 ± 9 µM in series [3] (Homo sapiens, HeLa); 75.2 ± 12.2 µM in series [4] (setting [7]).
With `Nc1ncnc2c1ncn2CCn1cc(COc2ccc(OCc3cn(CCn4cnc5c(N)ncnc54)nn3)cc2)nn1` [11a, 1,4-Bis{[1-(2-(6-amino-9H-purin-9-yl)ethyl)-1H-1,2,3-triazol-4-yl]methoxy}benzene], the IC50 is > 100 µM in series [1] (setting [5]); > 100 µM in series [2] (setting [6]); > 100 µM in series [3] (Homo sapiens, HeLa); > 100 µM in series [4] (setting [7]).
On to “{1-[2-(4-Chloro-7H-pyrrolo[2,3-d]pyrimidin-7-yl)ethyl]-1H-1,2,3-triazol-4-yl}methyl ether [5d]”, for which the IC50 in series [1] (72 h incubation) was > 100 µM; in series [2] (72 h incubation) it was 53.5 ± 4.8 µM; in series [3], > 100 µM; in series [4] (72 h incubation) it was 36.5 ± 3.9 µM.
For “{1-[2-(6-Amino-9H-purin-9-yl)ethyl]-1H-1,2,3-triazol-4-yl}methyl ether [11d]”, the IC50 in series [1] (72 h incubation), in series [2] (72 h incubation), in series [3] and in series [4] (72 h incubation) was > 100 µM each time.
In the case of `c1nc(N2CCCC2)c2ncn(CCn3cc(COc4ccc(OCc5cn(CCn6cnc7c(N8CCCC8)ncnc76)nn5)cc4)nn3)c2n1` [10a, 1,4-Bis{[1-(2-(6-(pyrrolidin-1-yl)-9H-purin-9-yl)ethyl)-1H-1,2,3-triazol-4-yl]methoxy}benzene], the IC50 is 95 ± 3.2 µM in series [1] (setting [5]); 98.3 ± 7.4 µM in series [2] (setting [6]); 60.6 ± 5.9 µM in series [3] (Homo sapiens, HeLa); 48.5 ± 1.6 µM in series [4] (setting [7]).
